Test results taken from article PMC10048804, “Coumarin-Based Compounds as Inhibitors of Tyrosinase/Tyrosine Hydroxylase: Synthesis, Kinetic Studies, and In Silico Approaches” (International Journal of Molecular Sciences, 2023).
Entries after “also recorded” stand apart in the source; their conditions may differ. Like-named read-outs stand apart in the source and are kept apart here.

Tests used:
mushroom tyrosinase [1] = target: T1, mushroom tyrosinase (Agaricus bisporus, UniProt C7FF04); test: Kinetic analysis of the inhibition of tyrosinase (Lineweaver-Burk plots); format: biochemical; set-up: purchased Sigma-Aldrich; settings: L-DOPA substrate
Protocol: The mechanism for tyrosinase inhibition of the tested compounds was determined from Lineweaver–Burk double reciprocal plots. The plot provides a useful graphical method for analysis of the Michaelis–Menten equations used to determine the Km values for possible competitive, uncompetitive, non-competitive, and mixed mechanisms of inhibition. All Lineweaver–Burk plots can be found in the Supplementary Information. As can be easily noticed, the majority of tested compounds are characterized by the mixed mode of inhibition (Table 2). It is a type of enzyme inhibition in which the inhibitor may bind to the enzyme whether or not the enzyme has already bound to the substrate.
A series of experiments was performed to determine the inhibition kinetics of the tested compounds following the already reported method. The inhibitor concentrations for the tested compounds were 0.05 and 0.1 mM. The substrate L-DOPA concentration was between 0.1 and 0.25 mM in all kinetic studies, but for the FN-06 and FN-27 compounds, concentrations between 0.15 and 0.3 mM were used. Maximal initial velocity was determined from the initial linear portion of absorbance up to ten minutes after the addition of the enzyme. The inhibition type of the enzyme, Michaelis constant (Km), and maximal velocity (Vmax) were determined using Lineweaver–Burk plots of the inverse of velocities (1/V) versus the inverse of substrate concentration 1/[L-DOPA] mM^−1.
Target sequence in this assay (C7FF04 1-392 limits assumed): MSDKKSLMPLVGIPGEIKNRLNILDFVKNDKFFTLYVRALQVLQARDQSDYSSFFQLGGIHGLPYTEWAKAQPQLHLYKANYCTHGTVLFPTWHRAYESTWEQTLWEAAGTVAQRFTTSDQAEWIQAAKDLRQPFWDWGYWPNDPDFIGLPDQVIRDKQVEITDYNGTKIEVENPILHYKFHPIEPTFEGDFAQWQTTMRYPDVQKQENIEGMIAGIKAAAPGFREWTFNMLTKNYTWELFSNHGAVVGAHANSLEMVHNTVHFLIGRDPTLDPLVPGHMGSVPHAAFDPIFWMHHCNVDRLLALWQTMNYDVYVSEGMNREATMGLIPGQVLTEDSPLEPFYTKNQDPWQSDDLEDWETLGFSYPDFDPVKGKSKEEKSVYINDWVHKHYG

mushroom tyrosinase [2] = target: T1, mushroom tyrosinase; test: Mushroom tyrosinase inhibition assay (L-DOPA substrate, dopachrome at 475 nm); format: biochemical
Protocol: All compounds were tested for their inhibitory effects on mushroom tyrosinase using L-DOPA as substrate. In general, the results were compared with standard tyrosinase inhibitors, such as kojic acid and ascorbic acid. […]. The mushroom tyrosinase (Sigma-Aldrich) inhibition was performed following previously reported methods. All assays were carried out with solutions containing phosphate buffer (50 mM, pH 6.8), L-DOPA (0.17 mM), EDTA (0.022 mM), tyrosinase (50–100 units), and varying concentrations of compounds, and were performed in triplicate at room temperature. The inhibitor solutions were prepared in DMSO with an initial concentration of 1 mM. Different aliquots were added to the solution containing buffer, L-DOPA, and EDTA, the enzyme being added in the end. The formation of dopachrome was determined by monitoring the absorbance at 475 nm with a T60U spectrophotometer (PG Instruments) equipped with quartz cells of 1 cm path length. Kojic acid and ascorbic acid were used as reference inhibitors with an initial concentration of 1 mM. The IC50 values were calculated from the equation generated with an exponential fit of the experimental data. […]
Target sequence in this assay (C7FF04 2-392): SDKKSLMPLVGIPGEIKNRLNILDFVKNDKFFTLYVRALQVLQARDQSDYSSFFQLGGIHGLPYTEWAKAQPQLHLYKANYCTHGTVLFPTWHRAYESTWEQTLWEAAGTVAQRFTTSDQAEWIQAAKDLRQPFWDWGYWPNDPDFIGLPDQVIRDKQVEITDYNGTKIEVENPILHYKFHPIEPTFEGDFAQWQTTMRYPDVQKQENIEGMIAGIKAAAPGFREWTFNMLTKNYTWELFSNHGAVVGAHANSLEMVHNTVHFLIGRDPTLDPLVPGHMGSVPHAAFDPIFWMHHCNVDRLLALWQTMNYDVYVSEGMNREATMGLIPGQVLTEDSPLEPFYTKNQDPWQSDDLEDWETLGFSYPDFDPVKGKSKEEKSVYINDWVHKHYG

mushroom tyrosinase [3] = settings: ref [39],[40],[41]; cited from earlier work
[4] = system: cellular tyrosinase in B16F10 cells; settings: ref [39],[40],[41]; cited from earlier work
B16F10 cells = settings: ref [39],[40],[41]; cited from earlier work
tyrosinase [5] = settings: cited from earlier work
intracellular tyrosinase = system: intracellular tyrosinase; set-up: method as in PMID 35063859; settings: ref [45], cited from earlier work
production of melanin = system: production of melanin; set-up: method as in PMID 35063859; settings: ref [45]; cited from earlier work
tyrosinase [6] = target: T2, tyrosinase (Agaricus bisporus, UniProt C7FF04); test: UV-Vis spectra of L-DOPA oxidation by tyrosinase in absence and presence of inhibitor; format: biochemical, mushroom; settings: after 30 min, versus L-DOPA with tyrosinase
T2 construct: purchased Sigma-Aldrich
Protocol: The remaining compound FN-40 is a competitive inhibitor, which binds to the enzyme at its active site, preventing the binding of the substrate to the enzyme. […] To observe the effect of the oxidation of L-DOPA by tyrosinase in the absence and presence of the tested compounds, the UV-Vis spectra were determined. During L-DOPA oxidation by tyrosinase, a characteristic signal at 475 nm is observed in the UV-Vis spectrum, corresponding to the formation of dopachrome.

T2 sequence (C7FF04 1-392 limits assumed): as the sequence (C7FF04 1-392 limits assumed) above

Compound | Inhibitory Mechanism (mushroom tyrosinase [1]; compound at 0.1 mM) | melting point [°C] | other results
(E)-N’-(4-(dimethylamino)benzylidene)-2-methylene-2H-chromene-3-carbohydrazide [FN-11] | Mixed | – | IC50 (mushroom tyrosinase [2]; mushroom tyrosinase, L-DOPA 0.17 mM as substrate, pH 6.8, triplicate, room temperature): 159000 nM
O=c1oc2cc(O)cc(O)c2cc1-c1cccs1 [Compound 1] | – | – | IC50 (mushroom tyrosinase [3]): 150 ± 28 nM
COc1cccc2cc(/C(C)=N/NC(N)=O)c(=O)oc12 [FN-25, (1E)-1-(1-(8-Methoxy-2-oxo-2H-chromen-3-yl)ethylidene)semicarbazide] | Mixed | 240 to 242 | –
O=c1oc2cc(O)cc(O)c2cc1-c1ccc(Br)cc1 [Compound 3] | – | – | cellular tyrosinase activity [4]: able to inhibit; melanin production (B16F10 cells): able to inhibit; IC50 (mushroom tyrosinase [3]): 1050 ± 56 nM
O=c1oc2cc(O)cc(O)c2cc1-c1cc(Br)cs1 [Compound 2] | – | – | cellular tyrosinase activity [4]: able to inhibit; melanin production (B16F10 cells): able to inhibit; IC50 (mushroom tyrosinase [3]): 380 ± 84 nM
COc1cccc2cc(C(C)=O)c(=O)oc12 [FN-07, 3. -Acetyl-8-methoxy-2H-chromen-2-one] | Mixed | – | –
CN(C)c1ccc(/C=C/C(=O)c2cc3ccccc3oc2=O)cc1 [FN-10, 3. -((E)-3-(4-(Dimethylamino)phenyl)acryloyl)-2H-chromen-2-one] | – | 111 to 112 | Inhibitory Mechanism (mushroom tyrosinase [1]; compound at 0.05 mM): mixed inhibitors
COc1cc(C2CC(c3cc4ccccc4oc3=O)=NN2c2nc(-c3ccc(Br)cc3)cs2)ccc1OCc1ccccc1 (stereo not shown) [Compound 5] | – | – | IC50 (tyrosinase [5]; ref [43]): 4.58 ± 0.22 nM
CC(C)=CC(=O)O[C@H]1Cc2cc3ccc(=O)oc3cc2OC1(C)C [Compound 7, decursin] | – | – | %Tyrosine inh. (intracellular tyrosinase; at 30 μM): 59.8 ± 0.6%; intracellular activity of tyrosinase (intracellular tyrosinase): decreases; production of melanin (production of melanin): reduces
COc1cccc2cc(/C(C)=N/NC(=O)c3ccncc3)c(=O)oc12 [FN-29, (13E)-N’-(1-(8-Methoxy-2-oxo-2H-chromen-3-yl)ethylidene)isonicotinohydrazide] | Mixed | 202 to 206 | solubility in the tyrosinase assay (mushroom tyrosinase [2]; in words): not soluble
CC(=O)c1cc2ccc(O)cc2oc1=O [FN-06, 3. -Acetyl-7-hydroxy-2H-chromen-2-one] | mixed inhibitors | – | –
CC(=O)c1cc2ccc(C)cc2oc1=O [MP-04, 3. -Acetyl-7-methyl-2H-chromen-2-one] | Noncompetitive | 157 to 159 | –
C/C(=N\NC(N)=S)c1cc2ccc(O)cc2oc1=O [FN-19, (1E)-1-(1-(7-Hydroxy-2-oxo-2H-chromen-3-yl)ethylidene)thiosemicarbazide] | mixed inhibitor; also recorded: mixed mode | – | signal intensity at 475 nm (dopachrome formation) (tyrosinase [6]): significant reduction; also recorded: significantly reduce
CC(=O)c1cc2ccccc2oc1=O [MP-05, 3. -Acetyl-2H-chromen-2-one] | Mixed | – | –
CC(=O)c1cc2cc([N+](=O)[O-])ccc2oc1=O [MP-03, 3. -Acetyl-6-nitro-2H-chromen-2-one] | Uncompetitive | 201 to 203 | –
CC(C)=CCOc1c2occc2cc2ccc(=O)oc12 [Compound 6, marmelosin] | – | – | IC50 (tyrosinase [5]; ref [44]): 20300 ± 1260 nM
CC(=O)c1cc2cc(Br)ccc2oc1=O [FN-40] | Competitive | – | –
C/C(=N\NC(N)=O)c1cc2ccc(O)cc2oc1=O [FN-17, (1E)-1-(1-(7-Hydroxy-2-oxo-2H-chromen-3-yl)ethylidene)semicarbazide] | Mixed | 226 to 229 | –
COc1cccc2cc(/C(C)=N/NC(N)=S)c(=O)oc12 [FN-27, (1E)-1-(1-(8-Methoxy-2-oxo-2H-chromen-3-yl)ethylidene)thiosemicarbazide] | mixed inhibitors | – | –
